The values below are quoted from earlier work in US20240000829A1, “COPOLYMER CONTAINING POLY(ETHYLENE GLYCOL) AND POLY(L-AMINO ACID DERIVATIVE), MICROPARTICLES THEREOF AND USE THEREOF IN PHARMACEUTICAL COMPOSITION” (University of Tsukuba, priority 2020, published 2024).

SMILES strings stand for the structures.

The data set has as its system patients with hepatic disorders such as hepatic cirrhosis. As to conditions: reported; Non-Patent Document 1.

In the case of `NCCC[C@H](N)C(=O)O` [L-ornithine], the “ammonia level / concentration” value is “reduced ammonia levels”.
